Series [1] concerns the target T1, CB1 (Rattus norvegicus, UniProt P20272). The series is described as follows: Rat CB1 receptor binding using brain membrane, [3H]SR141716A displacement (Protocol I). On the set-up: CB1 receptor present in a rat brain membrane preparation; from tissue; host or cells: rat brain membrane; inhibition: dose or concentration left out as unconfirmed. The following applies: 1 h.

In series [2] the target is T2, hCB1 (Homo sapiens, UniProt P21554). Nature of the series: Antagonism of CB1 receptors expressed in CHO cells, cAMP assay against CP 55,940 (Protocol IX.1). Format: cell-based. On the set-up: expressed in transfected cells; host or cells: CHO (h-CB1/CHO, G418-selected). The conditions noted are these: h-CB1/CHO cells, cAMP, vs 30 nM CP 55,940. The procedure:
(§1) IX. Assay for Determining Agonist and Antagonist Activity to CB1 and CB2 Receptors
(§2) 1. Antagonism of CB1/CB2 Receptors Expressed in CHO Cells.
h-CB1/CHO or h-CB2/CHO cells were grown in HAM's F12 DMEM medium (Sigma) with 10% FBS (Hyclone), 1% penicillin-streptomycin solution and 400 μg/ml of G418 (Sigma). 5000 cells were seeded per well in a 96 well plate and incubated for 24 hours at 37° C. in 5% CO2. On the day of assay, cells were washed with warm Krebs buffer containing 0.1% fatty acid free (FAF) BSA (Sigma) and re-suspended in the same buffer containing 1 mM IBMX. […] At the end of incubation, cells were lysed using lysis reagent from the cAMP estimation kit and cAMP was quantitated by the chemiluminescence method described in the manufacturer's instructions (DiscoveRX). EC50 values were calculated from dose response curves by nonlinear regression analysis using PRISM software.
A general note: Cyclic AMP is a second messenger, typically raised through Gs and lowered through Gi signalling.

Series [3] deals with T1, CB1. The series is described as follows: GTPγS binding assay, CB1 functional assay in rat cerebellar membrane (Protocol VIII). Format: biochemical. On the set-up: 10 μg rat cerebellum membrane; from tissue; host or cells: rat cerebellum membrane, prepared in-house. The following applies: for activation at 1 µM: 1 h, GTPγS binding over basal, rat cerebellar membrane, tested at 1 uM, read-out: Per Se % Stimulation; for inhibition at 1 µM: GTPγS binding, tested at 1 uM in presence of 1 μM WIN 55,212-2, read-out: % Inhibition of WIN-55212-2 induced stimulation. Put shortly: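 Rat cerebellar membranes (10 μg) incubated 1 h at 30 °C with 0.2 nM [35S]GTPγS, 50 μM GDP, and compound at 1 μM or 300 nM, alone or with 1 μM WIN 55,212-2, in Tris/MgCl2/EGTA/NaCl pH 7.4. Filter-bound radioactivity counted; percent stimulation calculated against basal specific binding (nonspecific defined by 10 μM GTPγS).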
For orientation: GTPγS is a poorly hydrolysed GTP analogue; its binding reports G protein activation.

For series [4], the target named is T3, hCB2 (Homo sapiens, UniProt P34972). Nature of the series: Antagonism of CB2 receptors expressed in CHO cells, cAMP assay against CP 55,940 (Protocol IX.1). The conditions noted are these: CHO, h-CB2/CHO cells, vs 10 nM CP 55,940. The class given is cell-based. On the set-up: expressed in transfected cells; host or cells: CHO (h-CB2/CHO, G418-selected). As for the experimental part: as §1, §2
h-CB1/CHO or h-CB2/CHO cells were grown in HAM's F12 DMEM medium (Sigma) with 10% FBS (Hyclone), 1% penicillin-streptomycin solution and 400 μg/ml of G418 (Sigma). 5000 cells were seeded per well in a 96 well plate and incubated for 24 hours at 37° C. in 5% CO2. On the day of assay, cells were washed with warm Krebs buffer containing 0.1% fatty acid free (FAF) BSA (Sigma) and re-suspended in the same buffer containing 1 mM IBMX. Test antagonist or reference compound (AM 251 (1-(2,4-dichlorophenyl)-5-(4-iodophenyl)-4-methyl-N-(1-piperidyl)pyrazole-3-carboxamide) for CB1 and SR144528 for CB2) diluted in FAFBSA+IBMX+Krebs buffer was added to the cells and incubated for 10 minutes at room temperature. CP 55,940 (30 nM final concentration for CB1 testing and 10 nM of the same for CB2 testing) was added to cells followed by forskolin (10 μM final concentration) and incubated for 30 minutes at room temperature. At the end of incubation, cells were lysed using lysis reagent from the cAMP estimation kit and cAMP was quantitated by the chemiluminescence method described in the manufacturer's instructions (DiscoveRX). EC50 values were calculated from dose response curves by nonlinear regression analysis using PRISM software.

The target of series [5] is T3, hCB2. Nature of the series: In vitro binding assay using hCB2-CHO membranes, [3H]-CP-55,940 displacement (Protocol IV). Set-up: expressed in transfected cells; host or cells: CHO (hCB2-CHO, generated in-house). The following applies: for inhibition at 0.3 µM: 1 h, read-out: % Displacement Protocol IV. Put shortly: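 Compounds were tested at a single 300 nM final concentration for displacing 0.75 nM [3H]-CP-55,940 from hCB2-CHO membranes (1 h, 30 °C, 50 mM Tris pH 7.4, 5 mM MgCl2, 1 mM EDTA, 0.1% BSA). Filter-bound radioactivity was counted, with 0.5 μM unlabelled CP-55,940 for nonspecific binding; results are % displacement.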

The target in series [6] is T3, hCB2. The series is described as follows: Agonism of CB2 receptors expressed in CHO cells, forskolin cAMP assay (Protocol IX.2). Set-up: expressed in transfected cells; host or cells: CHO (h-CB2/CHO, G418-selected). The class given is cell-based. The conditions noted are these: cAMP; for hCB2 Agonism: at 10 uM. As for the experimental part:
as §1
2. Agonism of CB1/CB2 Receptors Expressed in CHO Cells
h-CB1/CHO or h-CB2/CHO cells were grown in HAM's F12 DMEM medium (Sigma) with 10% FBS (Hyclone), 1% penicillin-streptomycin solution and 400 μg/ml of G418 (Sigma). 5000 cells were seeded per well in a 96 well plate and incubated for 24 hours at 37° C. in 5% CO2. On the day of assay, cells were washed with warm Krebs Buffer containing 0.1% fatty acid free (FAF) BSA (Sigma) and re-suspended in the same buffer containing 1 mM IBMX. Test compound or CP 55,940 as a reference compound (30 nM final concentration for CB1 testing and 10 μM of the same for CB2 testing) diluted in FFB+IBMX+Krebs buffer was added to the cells followed by forskolin addition (10 uM final concentration) and incubated for 30 minutes at room temperature. At the end of incubation, cells were lysed using lysis reagent from the cAMP estimation kit and cAMP was quantitated by chemiluminescence method described in the manufacturer's instructions (DiscoveRX). EC50 values were calculated from dose response curves by nonlinear regression analysis using PRISM software.

For series [7], the target named is T2, hCB1. The series is described as follows: In vitro binding assay using hCB1-CHO membranes, [3H]-CP-55,940 displacement (Protocol II). Set-up: expressed in transfected cells; host or cells: CHO (hCB1-CHO, generated in-house). A digest of the protocol:
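Incubated 1 h at 37° C, stopped by rapid vacuum filtration on PEI-precoated GF/B filters, bound radioactivity counted by liquid scintillation.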

The mark [8] stands for this setting: rat brain membrane, [3H]SR141716A displacement, read-out: % Displacement Protocol I.
[9] abbreviates: hCB2-CHO membranes, [3H]-CP-55,940 displacement.
The mark [10] stands for this setting: hCB2 Agonism IC50, h-CB2/CHO cells.
Setting [11] is: h-CB2/CHO cells, read-out: hCB2 Agonism IC50.

Where two headings read alike, the source gives them in different places.

The melting point is the temperature, or range, at which the solid turns liquid. As a reminder, the IC50 is the point on the concentration scale where inhibition reaches its midpoint.

T3 sequence (P34972 whole entry): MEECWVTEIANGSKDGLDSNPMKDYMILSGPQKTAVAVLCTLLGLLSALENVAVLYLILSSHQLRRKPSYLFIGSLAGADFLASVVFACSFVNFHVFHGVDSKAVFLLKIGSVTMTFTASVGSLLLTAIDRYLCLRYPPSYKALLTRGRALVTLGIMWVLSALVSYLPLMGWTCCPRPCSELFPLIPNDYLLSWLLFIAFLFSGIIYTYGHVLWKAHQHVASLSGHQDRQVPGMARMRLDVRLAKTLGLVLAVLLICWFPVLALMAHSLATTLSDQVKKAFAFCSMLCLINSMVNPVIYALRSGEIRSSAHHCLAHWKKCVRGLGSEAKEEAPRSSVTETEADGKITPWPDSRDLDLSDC
T1 sequence (P20272 whole entry): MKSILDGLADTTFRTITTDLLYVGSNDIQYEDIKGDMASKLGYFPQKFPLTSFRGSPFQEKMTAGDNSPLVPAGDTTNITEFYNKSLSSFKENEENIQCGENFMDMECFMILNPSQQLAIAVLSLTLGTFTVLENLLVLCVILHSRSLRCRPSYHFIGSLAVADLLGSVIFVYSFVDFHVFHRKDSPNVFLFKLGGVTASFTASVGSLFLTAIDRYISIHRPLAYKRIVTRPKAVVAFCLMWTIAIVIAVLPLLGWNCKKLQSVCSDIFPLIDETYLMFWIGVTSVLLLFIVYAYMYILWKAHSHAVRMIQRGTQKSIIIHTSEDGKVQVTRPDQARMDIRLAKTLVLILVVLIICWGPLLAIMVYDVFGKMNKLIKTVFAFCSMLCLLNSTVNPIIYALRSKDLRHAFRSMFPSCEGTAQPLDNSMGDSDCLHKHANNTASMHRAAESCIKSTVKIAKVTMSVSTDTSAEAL
T2 sequence (P21554 whole entry): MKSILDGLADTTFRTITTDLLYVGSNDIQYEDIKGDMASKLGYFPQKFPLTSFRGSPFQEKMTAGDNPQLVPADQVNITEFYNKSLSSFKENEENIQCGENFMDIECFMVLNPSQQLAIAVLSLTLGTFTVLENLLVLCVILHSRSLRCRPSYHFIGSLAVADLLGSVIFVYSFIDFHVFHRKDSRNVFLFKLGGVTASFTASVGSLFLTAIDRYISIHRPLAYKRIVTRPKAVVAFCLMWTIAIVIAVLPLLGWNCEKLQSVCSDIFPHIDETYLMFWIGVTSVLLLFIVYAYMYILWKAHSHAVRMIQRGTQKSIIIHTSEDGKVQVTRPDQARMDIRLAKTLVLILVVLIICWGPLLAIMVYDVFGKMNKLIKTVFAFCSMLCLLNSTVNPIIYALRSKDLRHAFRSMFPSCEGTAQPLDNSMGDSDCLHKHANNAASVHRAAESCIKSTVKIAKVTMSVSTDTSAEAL

`O=C(NC1CCCC1)c1nn(-c2ccc(Cl)cc2)c2c1C1CCC2C1` (stereo not drawn) [Example 212, N(3)-Cyclopentyl-1-(4-chlorophenyl)-4,5,6,7-tetrahydro-1H-4,7-methano-indazole-3-carboxamide]: the melting point was in the range of 176 to 178 °C. Moreover, the inhibition at CB1 [1] (read-out: % Displacement Protocol I, rat brain membrane, [3H]SR141716A displacement) was found to be 68.4%. Also, at hCB1 [2] (at 10 uM, read-out: hCB1 Antagonism), the inhibition at 10 µM worked out at 39.1%. Moreover, on CB1 [3], the activation at 1 µM is -13.8% and the inhibition at 1 µM is 97.4%.
`O=C(NN(C1CCCCC1)C1CCCCC1)c1nn(-c2ccc(Cl)cc2Cl)c2c1C1CCC2C1` (stereo not drawn) [Example 239, N(3)-(N,N-Dicyclohexylamino)-1-(2,4-dichlorophenyl)-4,5,6,7-tetrahydro-1H-4,7-methano-indazole-3-carboxamide]: the melting point lay in the range of 127 to 130 °C. On hCB2 [4], the inhibition at 10 µM stood at 64.1%. Further, the inhibition on CB1 [1] (setting [8]) came to 23.5%. For the same molecule, the inhibition at 0.3 µM at hCB2 [5] (setting [9]) came to 77.1%. In addition, the midpoint of inhibition on hCB2 [6] (setting [10]), the IC50, lay at 42.5 nM.
As to `O=C(NC12CC3CC(CC(C3)C1)C2)c1nn(-c2ccc(Cl)cc2Cl)c2c1C1CCC2c2ccccc21` (stereo not drawn) [Example 506, N(12)-(Adamantan-1yl)-10-(2,4-dichlorophenyl)-10,11-diazatetracyclo[6.5.2.0^2,7.0^9,13]pentadeca-2,4,6,9(13),11-pentaene-12-carboxamide], the melting point lay in the range of 120 to 124 °C. This molecule returned an inhibition at 10 µM at hCB2 [4] of 80.2%. On hCB2 [5], the inhibition at 0.3 µM was determined as 52.4%. Further, at hCB2 [6] (h-CB2/CHO cells), the “hCB2 Agonism” value is 0% at 10 uM.
`CCCCCNC(=O)c1nn(-c2ccc(F)cc2F)c2c1C1CCC2C1` (stereo not drawn) [Example 306, N5-n-Pentyl-3-(2,4-difluorophenyl)-3,4-diazatricyclo[5.2.1.0^2,6]deca-2(6),4-diene-5-carboxamide] came in with a melting point of 75 to 78 °C. The inhibition at 10 µM against hCB2 [4] amounted to 14.4%. For the same molecule, the inhibition at 0.3 µM on hCB2 [5] worked out at 62.9%. Moreover, at hCB2 [6] (setting [11]), the IC50 was determined as 11.9 nM.
As to `O=C(NNc1ccc(F)cc1F)c1nn(-c2ccc(Cl)cc2Cl)c2c1C1CCC2C1` (stereo not drawn) [Example 265, N(3)-[(2,4-Difluorophenyl)amino]-1-(2,4-dichlorophenyl)-4,5,6,7-tetrahydro-1H-4,7-methano-indazole-3-carboxamide], the melting point lay in the range of 157 to 160 °C. For the same molecule, on hCB2 [4], the inhibition at 10 µM came out at 27.2%. Besides, the inhibition on CB1 [1] (setting [8]) worked out at 31.6%. Moreover, the inhibition at 0.3 µM at hCB2 [5] (setting [9]) was found to be 70.2%. Inhibition against hCB2 [6] (setting [10]) was half-maximal at 23.1 nM (IC50).
In turn, `O=C(NCC1CCCCC1)c1nn(-c2ccc(Cl)cc2Cl)c2c1C1CCC2C1` (stereo not drawn) [Example 238, N(3)-Cyclohexylmethyl-1-(2,4-dichlorophenyl)-4,5,6,7-tetrahydro-1H-4,7-methano-indazole-3-carboxamide] had a melting point of 111 to 113 °C. Also, the inhibition at 10 µM against hCB2 [4] was found to be 24.5%. The inhibition on CB1 [1] (setting [8]) worked out at 73.9%. In addition, on CB1 [3], the activation at 1 µM was 0.4% and the inhibition at 1 µM is 59.1%. On hCB2 [6] (h-CB2/CHO cells), the “hCB2 Agonism” value is on record as 55.05% at.
Turning to `O=C(NC12CC3CC(CC(C3)C1)C2)c1nn(-c2ccc(Cl)cc2)c2c1C1CC3CC(C1)CC2C3` [Example 109, N(7)-(Adamantan-1-yl)-5-(4-chlorophenyl)-5,6-diazatetracyclo[7.3.1.1^3,11.0^4,8]tetradeca-4(8)-6-diene-7-carboxamide], the “% Displacement Protocol II” value at hCB1 [7] is on record as 8.36%. At hCB2 [5] (setting [9]), the “% Displacement Protocol IV” value turned out to be 63.05%. Also, at hCB1 [2] (at 10 uM), the “hCB1 Antagonism” value is listed as 61.64% at.
Consider `O=C(NN1CCCCC1)c1nn(-c2ccc(Cl)cc2Cl)c2c1C1CCC2C1` (stereo not drawn) [Example 268, N(5)-piperidino-3-(2′,4′-dichlorophenyl)-3,4-diazatricyclo[5.2.1.0^2,6]deca-2(6),4-diene-5-carboxamide], for which the inhibition at CB1 [1] (setting [8]) is 41%. For the same molecule, the inhibition at 1 µM is 50.9% against hCB1 [2] (at 1 uM) and 55.3% on CB1 [3]. At CB1 [3], the activation at 1 µM was determined as 29.1%.
`O=C(NCc1ccc(Cl)cc1Cl)c1nn(-c2ccc(F)cc2F)c2c1C1CCC2C1` (stereo not drawn) [Example 307, N5-(2,4-Dichlorobenzyl)-3-(2,4-difluorophenyl)-3,4-diazatricyclo[5.2.1.0^2,6]deca-2(6),4-diene-5-carboxamide] gave a melting point of 105 to 108 °C. For the same molecule, the inhibition at 10 µM at hCB2 [4] came out at 21.6%. In addition, the inhibition at 0.3 µM on hCB2 [5] amounted to 70.3%. Also, the IC50 at hCB2 [6] (setting [11]) worked out at 0.81 nM.
For `O=C(NC1CCCCC1)c1nn(-c2ccccc2Cl)c2c1C1CCC2C1` (stereo not drawn) [Example 206, N(3)-Cyclohexyl-1-(2-chlorophenyl)-4,5,6,7-tetrahydro-1H-4,7-methano-indazole-3-carboxamide], the melting point was found to be 171 °C. The inhibition at 10 µM on hCB2 [4] worked out at 16%. Besides, on CB1 [1] (setting [8]), the inhibition was 27.4%. For the same molecule, the inhibition at 0.3 µM at hCB2 [5] (setting [9]) was determined as 71.9%. For the same molecule, the IC50 against hCB2 [6] (setting [10]) is 10.5 nM.

The record behind these values is patent US7923465B2, “Cannabinoid receptor ligands, pharmaceutical compositions containing them, and process for their preparation” (priority 2005, dated 2011).
